{"source": "paper PMC11784013", "about": "“Potassium molybdate blocks APN-dependent coronavirus entry by degrading receptor via PIK3C3-mediated autophagy” (Journal of Virology, 2024)", "key": {"BECN1": {"tested_on": "BECN1", "assay": "BECN1 expression in ST cells (western blot)", "format": "cell-based, porcine", "conditions": "Fig. S8A, PM 10 mM, PRCV 0.1 MOI, 16 h", "procedure": "Fig 7 PM degrades APN expression via activating PIK3C3-mediated autophagy. (A) Graphical representation for autophagy and the targets of different autophagy inhibitors. (B) ST cells were treated with PM (10 mM) in the presence and absence of 3-MA (20 mM), SBI0206965 (20 µM), and 3BDO (30 µM) for 16 h, and the APN expression was detected by western blot. (C) ST cells were treated with PM (10 mM) in the presence and absence of 3-MA (20 mM) for 16 h, and the APN, PIK3C3, ATG14, BECN1, P62, and LC3 were measured by western blot. (D) ST cells were transfected with PIK3C3 siRNA-1, PIK3C3 siRNA-2, PIK3C3 siRNA-3, PIK3C3 siRNA-4, and NC siRNA for 24 h, the PIK3C3 expression was detected by western blot. […] The APN, PIK3C3, ATG14, BECN1, P62, and LC3 were detected by western blot. […] (G) PIK3C3 was detected by western blot in WT ST cells and PIK3C3 KO ST cells. (H) WT ST cells and PIK3C3 KO ST cells were treated with PM (10 mM) for 16 h and then the APN, PIK3C3, ATG14, BECN1, P62, and LC3 were detected by western blot. […] The APN, PIK3C3, P62, and LC3 were detected by western blot. All western blot results were calculated by Image J. All experiments were performed in triplicate.\nFig. S8. […] Then the APN, PIK3C3, ATG14, BECN1, P62, PRCV N and LC3 were detected by western blot (A), and viral titers and PRCV N mRNA level were determined by TCID50 (B) and RT-qPCR (C) . […]"}, "intestinal organoids": {"tested_on": "intestinal organoids", "assay": "Cell Counting Kit 8 cytotoxicity assay in intestinal organoids", "format": "cell-based, porcine", "conditions": "PM at concentrations less than 30 mM, 24 h", "procedure": "Fig 2 PM restricts TGEV and PRCV infection in porcine intestinal organoids. (A) Intestinal organoids cultured in 96-well plate were incubated with different concentrations of PM for 24 h, which was tested by Cell Counting Kit 8. (B and C) The intestinal organoids monolayer was treated with indicated PM and infected with TGEV Miller (0.1 MOI) for 24 h, which was measured by IFA (B), scale bar: 50 µm, RT-qPCR, TCID50, and western blot (C). (D) Apical-out intestinal organoids were treated with indicated PM and infected TGEV Miller (1 MOI) for 48 h, which was determined by RT-qPCR, TCID50, and western blot. (E and F) The intestinal organoids monolayer was treated with different concentrations of PM and infected with PRCV for 24 h, which was determined by IFA (E), scale bar: 50 µm, RT-qPCR, TCID50, and western blot (F). (G) Apical-out intestinal organoids were treated with indicated PM and infected PRCV (1 MOI) for 48 h, which was detected by RT-qPCR, TCID50, and western blot. Results are presented as mean ± SD of data from three independent experiments. **, P ≤ 0.01; ***, P ≤ 0.001.\nST cells or intestinal organoids cultured in a 96-well plate were incubated with different concentrations of PM (0, 0.1, 0.25, 0.5, 1, 2.5, 5, 10, 20, and 30 mM) for 24 h. […] The absorbance of each well was then measured at 450 nm using a microplate reader to determine cell viability."}}}
{"smiles": "[K+].[K+].[O]=[Mo](=[O])([O-])[O-]", "note": "[PM, potassium molybdate]", "values": [{"measurement": "BECN1 level, western blot, relative to WT without PM (=1)", "setting": "BECN1; PIK3C3 KO ST cells", "value": 0.95}, {"measurement": "BECN1 level, western blot, relative to WT without PM (=1)", "setting": "BECN1; WT ST cells", "value": 1.01}, {"measurement": "cytotoxicity (Cell Counting Kit 8)", "setting": "intestinal organoids", "value": "did not cause significant cytotoxicity"}]}
